Each block holds one molecule with its values, some of them ahead of it.
Tests used:
CYP1A2 = biological target: T1, CYP1A2 (Homo sapiens, UniProt P05177); assay: CYP phenotyping, metabolic stability; type: in vitro ADME; settings: CYP1A2 (40 pm/mL)
T1 sequence (P05177 1-516): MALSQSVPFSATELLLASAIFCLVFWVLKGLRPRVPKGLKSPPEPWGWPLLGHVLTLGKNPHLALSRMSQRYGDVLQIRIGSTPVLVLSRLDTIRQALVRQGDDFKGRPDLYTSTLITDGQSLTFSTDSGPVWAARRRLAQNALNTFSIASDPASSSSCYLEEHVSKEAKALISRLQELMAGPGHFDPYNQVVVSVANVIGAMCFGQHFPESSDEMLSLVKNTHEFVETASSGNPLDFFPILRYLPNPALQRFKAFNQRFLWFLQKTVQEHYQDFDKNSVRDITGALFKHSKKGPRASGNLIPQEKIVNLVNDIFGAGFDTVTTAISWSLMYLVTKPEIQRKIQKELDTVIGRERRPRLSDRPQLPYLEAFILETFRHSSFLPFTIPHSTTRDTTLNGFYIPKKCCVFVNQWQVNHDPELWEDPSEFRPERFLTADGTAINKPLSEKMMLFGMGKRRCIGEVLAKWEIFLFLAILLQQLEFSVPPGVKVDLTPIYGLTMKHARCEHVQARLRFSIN
Protocol: (§1) As mentioned above, a feature of the compounds of the invention is their metabolism by CYP1B1 which is expressed at high frequency in a wide range of human cancers of different histogenetic types, but not in normal tissues. […] Compounds V and II were exposed to a panel of six CYPs (see Table 5 below).
(§2) CYP metabolism studies were performed by Cerep Laboratories (Redmond, Wash., USA). Compounds were screened in duplicate at 1 μM in the presence of CYP enzyme, NADP (1.3 mM), D-Glucose-6-phosphate (3.3 mM) and Glucose-6-phosphate dehydrogenase. Following incubation at 0 and 60 minutes, parent compound levels were determined using standard HPLC/MS/MS procedures. The results are expressed as percent parent compound remaining after 60 minutes.

[1] = Cytotoxicity (MTS) in CHO/CYP1A1 cells; type: cell-based, Chinese Hamster; settings: Chinese hamster; 96 h, MTS
Protocol: (§3) CHO/CYP1A1 and CHO/CYP1B1 cells: CHO cells containing recombinant CYP1A1 and recombinant CYP1B1 co-expressing P450 reductase, namely (CHO/CYP1A1) and (CHO/CYP1B1) respectively, were cultured using the standard culture medium for CHO cells supplemented with 0.4 mg/ml G418 disulfate salt and 0.3 μM methotrexate (Sigma/Aldrich Co., Gillingham, Dorset, UK) according to methods described in the literature (ibid.) Cells were grown at 37° C. in a humidified atmosphere plus 5% CO2.
(§4) A single cell suspension of CHO, CHO/CYP1A1 or CHO/CYP1B1 in 100 μl of the required cell culture medium was seeded onto 96-well plates at a cell density of 1500 cells per well and placed in an incubator for 24 h at 37° C. The stock solution of test compound in DMSO was then added to give a concentration range of 100, 30, 10, 3, 1, 0.3, 0.1, 0.03, 0.01, 0.003, 0.001, 0 μM. The final concentration of DMSO 0.2% was found not to affect the growth characteristics of the various CHO cell lines. The cells were incubated with the test compound for 96 h after which all the medium was aspirated and replaced with 100 μl of fresh medium to compensate for the loss of medium due to evaporation. The cells were incubated with 20 μl of the MTS assay reagent for 1.5 h and the absorbance per well at 510 nm measured using a plate reader. The mean absorbance and standard deviation for each test compound concentration was calculated versus a series of controls including (a) cells plus medium, (b) cell plus medium containing DMSO 0.2%, (c) medium alone, and (d) medium containing DMSO 0.2% and a range of test compound concentrations from 0 to 100 μM.
(§5) The MTS assay is a homogeneous, colorimetric method for determining the number of viable cells in proliferation, cytotoxicity or chemosensitivity assays (Cali J J, et al., “Luminescence-Based Methods and Probes for Measuring Cytochrome P450 Activity”, pp. 1-29. Promega Corporation, United States, 2004, the contents of which are incorporated herein by reference). The assay is composed of solutions of tetrazolium compound [3-(4,5-dimethylthiazol-2-yl)-5-(3-carboxymethoxyphenyl)-2-(4-sulfophenyl)-2H-tetrazolium, inner salt; MTS] and an electron coupling reagent (phenazine methosulfate) PMS. MTS is bioreduced by cells into a formazan product that is soluble in tissue culture medium. The absorbance of the formazan product at 510 nm can be directly measured from 96-well assay plates. The quantity of formazan product as measured by the amount of absorbance at 490 or 510 nm is directly proportional to the number of living cells in culture.

CHO/CYP1A1 cells = assay: Cytotoxicity (MTS) in CHO/CYP1A1 cells; type: cell-based, Chinese Hamster
Protocol: as §3, §4, §5

wild-type CHO cells = assay: Cytotoxicity (MTS) in wild-type CHO cells; type: cell-based, Chinese Hamster; settings: for IC50: Cricetulus griseus, CHO, 96 h, MTS
Protocol: CHO cells: Chinese Hamster Ovary (CHO) DUKXB11 cells were grown under standard cell culture conditions in α-MEM supplemented with 10% FCS, 1 unit/ml each of hypoxanthine and thymidine, and penicillin (100 IU/ml) and streptomycin (100 μg/ml) according to literature methods (Ding S, et al., Arch. Biochem. Biophys., 348: 403-410, 1997, the contents of which are incorporated herein by reference). Cells were grown at 37° C. in a humidified atmosphere plus 5% CO2.
as §4, §5

[2] = Cytotoxicity (MTS) in CHO/CYP1B1 cells; type: cell-based, Chinese Hamster; settings: Chinese hamster
Protocol: as §3, §4, §5

CHO/CYP1B1 cells = assay: Cytotoxicity (MTS) in CHO/CYP1B1 cells; type: cell-based, Chinese Hamster
Protocol: as §3, §4, §5

CYP3A5 = CYP3A5 (Homo sapiens, UniProt P20815); assay: CYP phenotyping, metabolic stability; type: in vitro ADME; settings: CYP3A5 (10 pm/mL); 1 μM; after 60 minutes
Sequence of CYP3A5 (P20815 whole entry, species assumed): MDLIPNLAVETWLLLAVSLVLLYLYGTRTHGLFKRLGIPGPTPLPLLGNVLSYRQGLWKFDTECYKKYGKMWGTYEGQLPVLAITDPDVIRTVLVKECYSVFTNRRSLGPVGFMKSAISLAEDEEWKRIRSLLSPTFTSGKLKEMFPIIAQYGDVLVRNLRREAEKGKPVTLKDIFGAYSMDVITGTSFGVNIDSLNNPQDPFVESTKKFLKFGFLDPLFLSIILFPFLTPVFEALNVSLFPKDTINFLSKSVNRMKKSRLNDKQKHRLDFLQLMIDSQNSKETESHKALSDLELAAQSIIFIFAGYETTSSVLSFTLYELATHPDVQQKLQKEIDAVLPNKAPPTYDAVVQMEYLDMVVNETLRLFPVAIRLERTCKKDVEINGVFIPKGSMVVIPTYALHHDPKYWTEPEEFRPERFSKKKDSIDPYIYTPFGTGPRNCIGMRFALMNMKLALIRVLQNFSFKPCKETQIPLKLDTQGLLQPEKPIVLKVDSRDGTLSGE
Protocol: as §1, §2

CYP2C9 = CYP2C9 (Homo sapiens, UniProt P11712); assay: CYP phenotyping, metabolic stability; type: in vitro ADME; settings: CYP2C9 (10 pm/mL); 1 μM; after 60 minutes
Sequence of CYP2C9 (P11712 whole entry, species assumed): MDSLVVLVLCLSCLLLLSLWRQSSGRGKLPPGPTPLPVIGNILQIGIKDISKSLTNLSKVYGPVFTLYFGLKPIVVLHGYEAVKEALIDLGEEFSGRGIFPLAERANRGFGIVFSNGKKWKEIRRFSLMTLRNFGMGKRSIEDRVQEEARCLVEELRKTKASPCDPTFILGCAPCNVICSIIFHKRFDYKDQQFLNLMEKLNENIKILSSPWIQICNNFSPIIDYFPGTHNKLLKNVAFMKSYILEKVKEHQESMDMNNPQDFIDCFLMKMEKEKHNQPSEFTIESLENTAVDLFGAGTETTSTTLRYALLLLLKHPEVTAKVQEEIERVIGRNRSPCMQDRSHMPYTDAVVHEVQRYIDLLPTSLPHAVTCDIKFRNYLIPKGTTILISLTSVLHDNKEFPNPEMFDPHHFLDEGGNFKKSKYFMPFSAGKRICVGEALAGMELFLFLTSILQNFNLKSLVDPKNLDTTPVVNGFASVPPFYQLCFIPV
Protocol: (§6) Compounds V and II were exposed to a panel of six CYPs (see Table 5 below).
as §2

CYP2C19 = CYP2C19 (Homo sapiens, UniProt P33261); assay: CYP phenotyping, metabolic stability; type: in vitro ADME; settings: CYP2C19 (10 pm/mL); 1 μM; after 60 minutes
Sequence of CYP2C19 (P33261 whole entry, species assumed): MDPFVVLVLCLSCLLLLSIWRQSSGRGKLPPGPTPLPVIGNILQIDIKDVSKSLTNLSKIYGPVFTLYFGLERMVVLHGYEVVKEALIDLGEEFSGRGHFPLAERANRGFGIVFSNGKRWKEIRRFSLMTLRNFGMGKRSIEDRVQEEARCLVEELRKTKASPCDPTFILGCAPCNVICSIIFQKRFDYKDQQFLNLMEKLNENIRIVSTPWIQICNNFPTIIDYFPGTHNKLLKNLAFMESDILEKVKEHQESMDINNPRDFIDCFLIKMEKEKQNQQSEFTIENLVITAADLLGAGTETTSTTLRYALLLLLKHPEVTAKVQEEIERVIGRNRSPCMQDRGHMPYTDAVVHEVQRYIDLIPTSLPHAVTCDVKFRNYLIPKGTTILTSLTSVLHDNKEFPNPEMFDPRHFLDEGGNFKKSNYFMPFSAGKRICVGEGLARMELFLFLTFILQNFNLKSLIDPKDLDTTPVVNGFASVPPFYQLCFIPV
Protocol: as §6, §2

CYP2D6 = CYP2D6 (Homo sapiens, UniProt P10635); assay: CYP phenotyping, metabolic stability; type: in vitro ADME; settings: CYP2D6 (10 pm/mL); 1 μM; after 60 minutes
Sequence of CYP2D6 (P10635 whole entry, species assumed): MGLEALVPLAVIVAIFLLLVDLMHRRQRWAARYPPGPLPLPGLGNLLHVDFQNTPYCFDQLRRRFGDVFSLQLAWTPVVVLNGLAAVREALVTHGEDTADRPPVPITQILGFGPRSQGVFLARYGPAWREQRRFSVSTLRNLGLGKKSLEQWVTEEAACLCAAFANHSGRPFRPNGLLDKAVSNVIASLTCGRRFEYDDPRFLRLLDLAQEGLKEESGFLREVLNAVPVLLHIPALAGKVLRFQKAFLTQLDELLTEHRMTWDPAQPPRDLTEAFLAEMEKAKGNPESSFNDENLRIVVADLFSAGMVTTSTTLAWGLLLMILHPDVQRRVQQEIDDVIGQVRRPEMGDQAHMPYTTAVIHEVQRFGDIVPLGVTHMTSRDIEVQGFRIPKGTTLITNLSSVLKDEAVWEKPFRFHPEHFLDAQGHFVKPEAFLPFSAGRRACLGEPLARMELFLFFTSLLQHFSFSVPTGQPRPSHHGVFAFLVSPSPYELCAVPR
Protocol: as §6, §2

CYP3A4 = CYP3A4 (Homo sapiens, UniProt P08684); assay: CYP phenotyping, metabolic stability; type: in vitro ADME; settings: CYP3A4 (10 pm/mL); 1 μM; after 60 minutes
Protocol: as §6, §2

Lyn = Lyn (Homo sapiens, UniProt P07948); assay: Cerep kinase screen; type: biochemical; settings: read-out: % Inhibition of Control
Sequence of Lyn (P07948 whole entry, species assumed): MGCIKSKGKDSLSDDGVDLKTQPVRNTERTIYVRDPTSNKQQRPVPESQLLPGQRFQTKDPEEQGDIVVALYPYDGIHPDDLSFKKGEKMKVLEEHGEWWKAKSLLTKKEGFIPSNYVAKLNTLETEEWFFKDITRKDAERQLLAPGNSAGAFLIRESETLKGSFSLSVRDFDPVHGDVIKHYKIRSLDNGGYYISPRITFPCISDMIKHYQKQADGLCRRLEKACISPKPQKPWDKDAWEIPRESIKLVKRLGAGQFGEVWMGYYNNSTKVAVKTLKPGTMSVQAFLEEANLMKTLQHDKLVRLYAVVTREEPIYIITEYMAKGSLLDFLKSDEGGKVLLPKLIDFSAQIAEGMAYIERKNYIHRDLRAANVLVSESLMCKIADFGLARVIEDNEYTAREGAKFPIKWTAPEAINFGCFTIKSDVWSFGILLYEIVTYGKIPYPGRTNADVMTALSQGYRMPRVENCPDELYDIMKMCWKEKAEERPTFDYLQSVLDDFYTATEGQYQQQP
Protocol: (§7) Kinase screening was performed by Cerep Laboratories (Celle l′Evescault, France). Compounds were screened in duplicate at a single concentration (10 μM). The results, set forth in Table 4 below, are expressed as percent inhibition of control specific activity: {100−[(measured specific activity/control specific activity)×100]} obtained in the presence of Compound XI and Compound V. ATP concentrations correspond to the ATP Km value for each individual kinase (Cerep, private communication). In each experiment, a reference compound was tested concurrently with Compound XI and Compound V in order to assess the assay reliability. IC50 values for the reference compounds were within accepted limits (±0.5 log units) of the historic average.

FLT-3 = FLT-3 (Homo sapiens, UniProt P36888); assay: Cerep kinase screen; type: biochemical; settings: read-out: % Inhibition of Control
Sequence of FLT-3 (P36888 27-993, species assumed): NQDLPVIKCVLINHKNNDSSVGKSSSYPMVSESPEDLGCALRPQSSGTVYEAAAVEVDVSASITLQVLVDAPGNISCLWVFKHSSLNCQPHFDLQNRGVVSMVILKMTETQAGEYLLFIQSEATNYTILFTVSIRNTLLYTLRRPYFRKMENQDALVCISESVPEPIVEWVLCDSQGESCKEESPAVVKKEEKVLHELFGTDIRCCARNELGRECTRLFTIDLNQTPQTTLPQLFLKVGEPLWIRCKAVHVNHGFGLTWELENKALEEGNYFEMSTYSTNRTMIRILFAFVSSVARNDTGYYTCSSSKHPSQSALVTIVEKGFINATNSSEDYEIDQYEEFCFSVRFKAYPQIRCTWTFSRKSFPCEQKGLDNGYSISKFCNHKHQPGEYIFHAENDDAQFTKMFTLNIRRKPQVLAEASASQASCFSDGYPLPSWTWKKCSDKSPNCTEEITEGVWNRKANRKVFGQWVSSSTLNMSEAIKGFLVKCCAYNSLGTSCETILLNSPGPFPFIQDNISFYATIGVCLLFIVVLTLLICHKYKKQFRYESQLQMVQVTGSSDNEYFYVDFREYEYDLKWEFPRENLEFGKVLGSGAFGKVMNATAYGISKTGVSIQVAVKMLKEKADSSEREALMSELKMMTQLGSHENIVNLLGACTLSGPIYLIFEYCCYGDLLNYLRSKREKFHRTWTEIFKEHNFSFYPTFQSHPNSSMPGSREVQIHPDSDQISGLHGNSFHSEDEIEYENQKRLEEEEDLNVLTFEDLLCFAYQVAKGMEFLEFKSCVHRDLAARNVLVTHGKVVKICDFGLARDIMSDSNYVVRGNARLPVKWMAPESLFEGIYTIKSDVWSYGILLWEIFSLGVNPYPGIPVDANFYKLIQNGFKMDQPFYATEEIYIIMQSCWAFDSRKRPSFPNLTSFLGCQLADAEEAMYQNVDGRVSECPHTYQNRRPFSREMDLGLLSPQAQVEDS
Protocol: as §7

C-Met (HGFR) = C-Met (HGFR) (Homo sapiens, UniProt P08581); assay: Cerep kinase screen; type: biochemical; settings: read-out: % Inhibition of Control
Protocol: as §7

FGFR2 = FGFR2 (Homo sapiens, UniProt P21802); assay: Cerep kinase screen; type: biochemical; settings: read-out: % Inhibition of Control
Protocol: as §7

Fyn = Fyn (Homo sapiens, UniProt P06241); assay: Cerep kinase screen; type: biochemical; settings: read-out: % Inhibition of Control
Protocol: as §7

KDR (VEGFR2) = KDR (VEGFR2) (Homo sapiens, UniProt P35968); assay: Cerep kinase screen; type: biochemical; settings: read-out: % Inhibition of Control
Sequence of KDR (VEGFR2) (P35968 20-1356, species assumed): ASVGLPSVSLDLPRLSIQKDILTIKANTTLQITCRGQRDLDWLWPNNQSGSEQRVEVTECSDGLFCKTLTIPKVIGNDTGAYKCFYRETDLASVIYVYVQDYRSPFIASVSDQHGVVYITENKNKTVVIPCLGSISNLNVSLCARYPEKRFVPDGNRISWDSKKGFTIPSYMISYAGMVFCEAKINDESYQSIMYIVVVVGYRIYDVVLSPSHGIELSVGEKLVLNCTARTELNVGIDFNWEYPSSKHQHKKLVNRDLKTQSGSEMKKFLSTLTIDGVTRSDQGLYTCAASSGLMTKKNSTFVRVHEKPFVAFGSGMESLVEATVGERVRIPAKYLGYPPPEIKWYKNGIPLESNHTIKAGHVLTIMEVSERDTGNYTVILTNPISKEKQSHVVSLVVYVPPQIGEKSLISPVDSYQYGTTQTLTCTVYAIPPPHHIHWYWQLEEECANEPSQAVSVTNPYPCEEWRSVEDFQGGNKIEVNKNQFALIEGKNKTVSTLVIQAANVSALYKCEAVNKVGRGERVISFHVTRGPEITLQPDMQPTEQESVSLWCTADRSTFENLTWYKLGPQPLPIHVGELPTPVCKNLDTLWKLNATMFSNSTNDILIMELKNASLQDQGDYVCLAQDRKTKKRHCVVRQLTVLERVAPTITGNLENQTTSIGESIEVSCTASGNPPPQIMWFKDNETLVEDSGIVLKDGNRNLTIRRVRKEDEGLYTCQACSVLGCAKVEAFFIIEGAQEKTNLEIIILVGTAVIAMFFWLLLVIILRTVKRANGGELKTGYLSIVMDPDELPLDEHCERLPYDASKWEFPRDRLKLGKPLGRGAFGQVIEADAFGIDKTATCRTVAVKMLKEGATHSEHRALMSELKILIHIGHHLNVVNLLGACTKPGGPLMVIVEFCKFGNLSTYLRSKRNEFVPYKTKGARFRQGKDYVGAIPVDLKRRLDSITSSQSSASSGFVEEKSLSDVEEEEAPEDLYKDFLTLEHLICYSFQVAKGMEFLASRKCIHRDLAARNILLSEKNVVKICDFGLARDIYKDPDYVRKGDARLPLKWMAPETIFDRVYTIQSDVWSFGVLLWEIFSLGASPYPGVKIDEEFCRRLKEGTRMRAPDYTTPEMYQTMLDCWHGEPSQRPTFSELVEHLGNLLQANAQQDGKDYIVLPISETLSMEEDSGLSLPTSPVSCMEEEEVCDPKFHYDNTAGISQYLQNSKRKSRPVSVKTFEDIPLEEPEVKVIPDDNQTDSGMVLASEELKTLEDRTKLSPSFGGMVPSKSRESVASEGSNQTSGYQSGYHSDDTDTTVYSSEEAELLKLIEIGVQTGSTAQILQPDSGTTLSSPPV
Protocol: as §7

CSK = CSK (Homo sapiens, UniProt P41240); assay: Cerep kinase screen; type: biochemical; settings: read-out: % Inhibition of Control
Protocol: as §7

PDGFRβ = PDGFRβ (Homo sapiens, UniProt P09619); assay: Cerep kinase screen; type: biochemical; settings: read-out: % Inhibition of Control
Protocol: as §7

FLT-1 = FLT-1 (Homo sapiens, UniProt P17948); assay: Cerep kinase screen; type: biochemical; settings: read-out: % Inhibition of Control
Protocol: as §7

FGFR4 = FGFR4 (Homo sapiens, UniProt P22455); assay: Cerep kinase screen; type: biochemical; settings: read-out: % Inhibition of Control
Protocol: as §7

[3] = text of b216, read-out: IC50, proliferation of CHO/CYP1B1 cells

% Reference Compound Remaining (CYP1A2; reference compound): 0%
Compound: CCOc1ccc2nc3ccc(=O)cc-3oc2c1 [Ethoxy-resorufin, 7-ethoxyresorufin, reference compound]

Compound: COc1ccc(-c2cc(-c3ccc4c(c3)OCO4)cc(=O)[nH]2)c(OC)c1 [Compound III]
IC50 at 96 h [1]: 950 ± 350 nM | toxicity / activity in CYP1A1 expressing CHO cells (in words) (CHO/CYP1A1 cells): active | IC50 (wild-type CHO cells): 6110 ± 340 nM | IC50 at 96 h ([2]; 96 h, MTS, read-out: CHO/CYP1B1 IC50): 40 ± 30 nM | activity against CHO/CYP1B1 cells (in words) (CHO/CYP1B1 cells): active

Mean Parent Remaining (%) (CYP1A2; 1 μM, after 60 minutes): 71% | Mean Parent Remaining (%) (CYP3A5): 87% | Mean Parent Remaining (%) (CYP2C9): 109% | Mean Parent Remaining (%) (CYP2C19): 111% | Mean Parent Remaining (%) (CYP2D6): 100% | Mean Parent Remaining (%) (CYP3A4): 93% | inhibition at 10 µM (Lyn): -1% | inhibition at 10 µM (FLT-3): 21% | inhibition at 10 µM (C-Met (HGFR)): -5% | inhibition at 10 µM (FGFR2): 13% | inhibition at 10 µM (Fyn): 25% | inhibition at 10 µM (KDR (VEGFR2)): 19% | inhibition at 10 µM (CSK): 4% | inhibition at 10 µM (PDGFRβ): 7% | inhibition at 10 µM (FLT-1): 11% | inhibition at 10 µM (FGFR4): -3%
Compound: COc1ccc(-c2cc(-c3ccc4c(c3)OCO4)cc(=O)[nH]2)cc1OC [Compound V]
IC50 at 96 h [1]: > 100000 nM | toxicity / activity in CYP1A1 expressing CHO cells (in words) (CHO/CYP1A1 cells): non toxic | toxicity to wild-type CHO cells (in words) (wild-type CHO cells): non toxic | IC50 (wild-type CHO cells): > 100000 nM | IC50 at 96 h [2, 3]: 80 nM | activity against CHO/CYP1B1 cells (in words) (CHO/CYP1B1 cells): strongly inhibit proliferation

Compound: COc1ccc(-c2cc(-c3ccc4c(c3)OCO4)cc(=O)[nH]2)cc1 [Compound VI]
IC50 at 96 h [1]: > 100000 nM | toxicity / activity in CYP1A1 expressing CHO cells (in words) (CHO/CYP1A1 cells): non toxic | toxicity to wild-type CHO cells (in words) (wild-type CHO cells): non toxic | IC50 (wild-type CHO cells): > 100000 nM | IC50 at 96 h [2, 3]: 500 nM | activity against CHO/CYP1B1 cells (in words) (CHO/CYP1B1 cells): strongly inhibit proliferation

Source: patent US8236827B2, “Compounds” (Spear Therapeutics Limited, priority 2009, dated 2012)
